{"source": "PubChem BioAssay AID1963972", "about": "(Molecular Pharmacology Branch, DTP, NCI, 2024);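 also: spheroids exposed to compounds for seven days before reading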", "test_system": "945468-187-T-J2-PDC spheroids viability", "experiment": "Anticancer human tumor 945468-187-T-J2-PDC patient-derived rectal carcinoma cell line growth inhibition [PI3K]", "conditions": "spheroids with HUVEC and MSC; for viability, T/C: stronger effect = lower value", "outline": "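Stroma-containing spheroids: tumor line, pooled-donor HUVEC, hMSC. Treatments: targeted agents with PI3K inhibitors. Dosing: clinically relevant, half-log spacing, 10 microM ceiling without known Cmax. Read-out: cell viability.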"}
{"smiles": "CC(Nc1ncnc2nc[nH]c12)c1cc2cccc(Cl)c2c(=O)n1-c1ccccc1", "note": "(stereo unspecified)", "values": [{"measurement": "viability, T/C", "setting": "compound 0.1 µM", "value": "91.9% [middle of 8 runs]"}, {"measurement": "viability, T/C", "setting": "compound 0.316 µM", "value": "96.3% [middle of 8 runs]"}, {"measurement": "viability, T/C", "setting": "compound 10 µM", "value": "103% [middle of 8 runs]"}, {"measurement": "IC50", "setting": "compound alone, run of 04/25/2023", "value": "> 10000", "unit": "nM"}]}
{"smiles": "Cn1cnc2c(F)c(Nc3ccc(Br)cc3Cl)c(C(=O)NOCCO)cc21", "note": "+ COc1c(OCCCN2CCOCC2)ccc2c3n(c(=NC(=O)c4cnc(N)nc4)nc12)CCN3", "values": [{"measurement": "IC50", "setting": "curve of first compound, second compound 0.00316 µM", "value": "> 3000", "unit": "nM"}, {"measurement": "IC50", "setting": "curve of first compound, second compound 0.01 µM", "value": "> 3000", "unit": "nM"}, {"measurement": "IC50", "setting": "curve of first compound, second compound 0.0316 µM", "value": 2950, "unit": "nM"}, {"measurement": "IC50", "setting": "curve of first compound, second compound 0.1 µM", "value": 657, "unit": "nM"}, {"measurement": "IC50", "setting": "curve of first compound, second compound 0.316 µM", "value": "< 9.49", "unit": "nM"}, {"measurement": "IC50", "setting": "curve of first compound, second compound 1 µM", "value": "< 9.49", "unit": "nM"}, {"measurement": "viability, T/C", "setting": "second compound 0.00316 µM, first compound 0.00949 µM", "value": 99.9, "unit": "%"}, {"measurement": "viability, T/C", "setting": "second compound 0.00316 µM, first compound 0.03 µM", "value": 129, "unit": "%"}, {"measurement": "viability, T/C", "setting": "second compound 0.00316 µM, first compound 0.0949 µM", "value": 109, "unit": "%"}, {"measurement": "viability, T/C", "setting": "second compound 0.00316 µM, first compound 0.3 µM", "value": 94.6, "unit": "%"}, {"measurement": "viability, T/C", "setting": "second compound 0.00316 µM, first compound 0.949 µM", "value": 85.4, "unit": "%"}, {"measurement": "viability, T/C", "setting": "second compound 0.00316 µM, first compound 3 µM", "value": 81.5, "unit": "%"}, {"measurement": "viability, T/C", "setting": "second compound 0.01 µM, first compound 0.00949 µM", "value": 125, "unit": "%"}, {"measurement": "viability, T/C", "setting": "second compound 0.01 µM, first compound 0.03 µM", "value": 146, "unit": "%"}, {"measurement": "viability, T/C", "setting": "second compound 0.01 µM, first compound 0.0949 µM", "value": 109, "unit": "%"}, {"measurement": "viability, T/C", "setting": "second compound 0.01 µM, first compound 0.3 µM", "value": 94.1, "unit": "%"}, {"measurement": "viability, T/C", "setting": "second compound 0.01 µM, first compound 0.949 µM", "value": 92.5, "unit": "%"}, {"measurement": "viability, T/C", "setting": "second compound 0.01 µM, first compound 3 µM", "value": 67.5, "unit": "%"}, {"measurement": "viability, T/C", "setting": "second compound 0.0316 µM, first compound 0.00949 µM", "value": 95, "unit": "%"}, {"measurement": "viability, T/C", "setting": "second compound 0.0316 µM, first compound 0.03 µM", "value": 111, "unit": "%"}, {"measurement": "viability, T/C", "setting": "second compound 0.0316 µM, first compound 0.0949 µM", "value": 85.4, "unit": "%"}, {"measurement": "viability, T/C", "setting": "second compound 0.0316 µM, first compound 0.3 µM", "value": 98.6, "unit": "%"}, {"measurement": "viability, T/C", "setting": "second compound 0.0316 µM, first compound 0.949 µM", "value": 71.9, "unit": "%"}, {"measurement": "viability, T/C", "setting": "second compound 0.0316 µM, first compound 3 µM", "value": 49.6, "unit": "%"}, {"measurement": "viability, T/C", "setting": "second compound 0.1 µM, first compound 0.00949 µM", "value": 102, "unit": "%"}, {"measurement": "viability, T/C", "setting": "second compound 0.1 µM, first compound 0.03 µM", "value": 94.9, "unit": "%"}, {"measurement": "viability, T/C", "setting": "second compound 0.1 µM, first compound 0.0949 µM", "value": 88.8, "unit": "%"}, {"measurement": "viability, T/C", "setting": "second compound 0.1 µM, first compound 0.3 µM", "value": 74.1, "unit": "%"}, {"measurement": "viability, T/C", "setting": "second compound 0.1 µM, first compound 0.949 µM", "value": 38.3, "unit": "%"}, {"measurement": "viability, T/C", "setting": "second compound 0.1 µM, first compound 3 µM", "value": 17.7, "unit": "%"}, {"measurement": "viability, T/C", "setting": "second compound 0.316 µM, first compound 0.00949 µM", "value": 39.9, "unit": "%"}, {"measurement": "viability, T/C", "setting": "second compound 0.316 µM, first compound 0.03 µM", "value": 40, "unit": "%"}, {"measurement": "viability, T/C", "setting": "second compound 0.316 µM, first compound 0.0949 µM", "value": 34.1, "unit": "%"}, {"measurement": "viability, T/C", "setting": "second compound 0.316 µM, first compound 0.3 µM", "value": 21.9, "unit": "%"}, {"measurement": "viability, T/C", "setting": "second compound 0.316 µM, first compound 0.949 µM", "value": 16.3, "unit": "%"}, {"measurement": "viability, T/C", "setting": "second compound 0.316 µM, first compound 3 µM", "value": 6.67, "unit": "%"}, {"measurement": "viability, T/C", "setting": "second compound 1 µM, first compound 0.00949 µM", "value": 20, "unit": "%"}, {"measurement": "viability, T/C", "setting": "second compound 1 µM, first compound 0.03 µM", "value": 18.6, "unit": "%"}, {"measurement": "viability, T/C", "setting": "second compound 1 µM, first compound 0.0949 µM", "value": 18.1, "unit": "%"}, {"measurement": "viability, T/C", "setting": "second compound 1 µM, first compound 0.3 µM", "value": 11.3, "unit": "%"}, {"measurement": "viability, T/C", "setting": "second compound 1 µM, first compound 0.949 µM", "value": 10.4, "unit": "%"}, {"measurement": "viability, T/C", "setting": "second compound 1 µM, first compound 3 µM", "value": 5.87, "unit": "%"}]}
